The subject of the assay is L1210 leukemia ip in BDF1 mice, survival T/C. The experiment in a line: NCI In Vivo Anticancer Drug Screen. Data for tumor model L1210 Leukemia (intraperitoneal) in B6D2F1 (BDF1) mice. To be noted: endpoint: mean survival time, higher = longer survival. In short, it runs like this: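 Transplanted-tumor mice were given test agent; controls received vehicle only. Survival readings from the two groups were divided (treated over control).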

Where [1] appears, read: dose: 100.0 mg/kg/injection, schedule: Q01DX001 (ip), vehicle: carboxymethylcellulose (CMC).
The mark [2] stands for this setting: dose: 50.0 mg/kg/injection, schedule: Q01DX009 (ip), vehicle: saline.
Setting [3] is: dose: 50.0 mg/kg/injection, schedule: Q04DX003 (ip), vehicle: saline.
[4] abbreviates: dose: 100.0 mg/kg/injection, schedule: Q01DX009 (ip), vehicle: saline.
Setting [5] is: dose: 100.0 mg/kg/injection, schedule: Q04DX003 (ip), vehicle: saline.
[6] abbreviates: dose: 100.0 mg/kg/injection, schedule: Q04DX003 (ip), vehicle: saline with Tween-80.
The mark [7] stands for this setting: dose: 200.0 mg/kg/injection, schedule: Q04DX003 (ip), vehicle: saline with Tween-80.
[8] abbreviates: dose: 400.0 mg/kg/injection, schedule: Q04DX003 (ip), vehicle: saline with Tween-80.
The mark [9] stands for this setting: dose: 100.0 mg/kg/injection, schedule: Q04DX002 (ip), vehicle: saline.
Where [10] appears, read: dose: 200.0 mg/kg/injection, schedule: Q04DX002 (ip), vehicle: saline.
Where [11] appears, read: dose: 400.0 mg/kg/injection, schedule: Q04DX002 (ip), vehicle: saline.

Molecules are shown by their SMILES. Several values for one entry are separate records, joined by “and”; a condition that tells them apart may be missing. Equal values may be shown once. Toxic doses and inconclusive results are not listed.

For the compound `COC(=O)N/N=C/c1ccc(Cl)cc1Cl`, the T/C is 94 % of control (dose: 6.25 mg/kg/injection, schedule: Q01DX009 (ip), vehicle: Klucel (hydroxypropylcellulose) (HPC)); 101 % of control (dose: 12.5 mg/kg/injection, schedule: Q01DX009 (ip), vehicle: Klucel (hydroxypropylcellulose) (HPC)); 94 % of control and 92 % of control (dose: 25.0 mg/kg/injection, schedule: Q01DX009 (ip), vehicle: Klucel (hydroxypropylcellulose) (HPC)).
Take `Cc1c(CNc2ccc(C(=O)NC(CC(=O)O)C(=O)O)cc2)ccc2nc(N)nc(N)c12` (stereo not drawn): the T/C (dose: 0.05 mg/kg/injection, schedule: Q01DX009 (ip), vehicle: other) is 122 % of control; the T/C (dose: 0.06 mg/kg/injection, schedule: Q01DX009 (ip), vehicle: other) is 117 % of control; the T/C (dose: 0.1 mg/kg/injection, schedule: Q01DX009 (ip), vehicle: carboxymethylcellulose (CMC)) was 94 % of control; the T/C (dose: 0.1 mg/kg/injection, schedule: Q01DX009 (ip), vehicle: other) is 152 % of control; the T/C (dose: 0.19 mg/kg/injection, schedule: Q01DX009 (ip), vehicle: other) is 115 % of control; the T/C (dose: 0.19 mg/kg/injection, schedule: Q01DX009 (ip), vehicle: water) is 175 % of control. Further, the T/C by setting is: (dose: 0.25 mg/kg/injection, schedule: Q01DX009 (ip), vehicle: other) 101 % of control; (dose: 0.38 mg/kg/injection, schedule: Q01DX009 (ip), vehicle: other) 102 % of control; (dose: 0.38 mg/kg/injection, schedule: Q01DX009 (ip), vehicle: water) 116 % of control; (dose: 0.5 mg/kg/injection, schedule: Q02DX005 (ip), vehicle: water) 205 % of control; (dose: 0.75 mg/kg/injection, schedule: Q01DX009 (ip), vehicle: carboxymethylcellulose (CMC)) 91 % of control; (dose: 0.75 mg/kg/injection, schedule: Q01DX009 (ip), vehicle: water) 94 % of control. Besides, the T/C (dose: 1.0 mg/kg/injection, schedule: Q02DX005 (ip), vehicle: water) is 158 % of control; the T/C (dose: 1.5 mg/kg/injection, schedule: Q01DX009 (ip), vehicle: water) was 98 % of control; the T/C (dose: 1.56 mg/kg/injection, schedule: Q01DX001 (ip), vehicle: other) was 124 % of control; the T/C (dose: 1.69 mg/kg/injection, schedule: Q04DX003 (ip), vehicle: water) is 167 % of control; the T/C (dose: 3.0 mg/kg/injection, schedule: Q01DX009 (ip), vehicle: water) was 97 % of control; the T/C (dose: 3.38 mg/kg/injection, schedule: Q04DX003 (ip), vehicle: water) is 173 % of control. The T/C was 118 % of control (dose: 4.0 mg/kg/injection, schedule: Q02DX005 (ip), vehicle: water); 195 % of control (dose: 6.75 mg/kg/injection, schedule: Q04DX003 (ip), vehicle: water); 89 % of control (dose: 8.0 mg/kg/injection, schedule: Q02DX005 (ip), vehicle: water); 159 % of control (dose: 12.5 mg/kg/injection, schedule: Q01DX001 (ip), vehicle: other); 224 % of control (dose: 13.5 mg/kg/injection, schedule: Q04DX003 (ip), vehicle: water); 98 % of control (dose: 25.0 mg/kg/injection, schedule: Q01DX001 (ip), vehicle: carboxymethylcellulose (CMC)). The T/C is 98 % of control (dose: 25.0 mg/kg/injection, schedule: Q01DX001 (ip), vehicle: other); 119 % of control (dose: 27.0 mg/kg/injection, schedule: Q04DX003 (ip), vehicle: water); 155 % of control (dose: 50.0 mg/kg/injection, schedule: Q01DX001 (ip), vehicle: carboxymethylcellulose (CMC)); 158 % of control under setting [1].
Turning to `O=C1Nc2nc(=O)nc3[nH]c(=O)nc(n23)N1`, the T/C runs as follows: (dose: 25.0 mg/kg/injection, schedule: Q01DX009 (ip), vehicle: saline) 106 % of control; under setting [2], 98 % of control; under setting [3], 110 % of control; under setting [4], 98 % of control; under setting [5], 103 % of control.
On to `CC(C)(C)CC(C)(C)c1ccc(OCCO)cc1`, for which the T/C runs as follows: under setting [2], 97 % of control; under setting [4], 91 % of control; under setting [5], 107 % of control; (dose: 200.0 mg/kg/injection, schedule: Q04DX003 (ip), vehicle: saline) 101 % of control.
As to `NC(=O)NN=C1CCCCCCCCCCC1`, the T/C reads like this: (dose: 100.0 mg/kg/injection, schedule: Q01DX001 (ip), vehicle: other) 95 % of control; under setting [6], 97 % of control; (dose: 200.0 mg/kg/injection, schedule: Q01DX001 (ip), vehicle: other) 95 % of control; under setting [7], 105 % of control; (dose: 400.0 mg/kg/injection, schedule: Q01DX001 (ip), vehicle: other) 103 % of control; under setting [8], 94 % of control.
Consider `Cc1ccc(-c2c(O)c(Br)c(-c3ccc(C)cc3C)c(O)c2Br)c(C)c1`, for which the T/C by setting is: under setting [6], 98 % of control; under setting [7], 93 % of control; under setting [8], 93 % of control.
For the compound `O=C1CC(NCCO)C(=O)NN1` (stereo not drawn), the T/C is 101 % of control under setting [4]; 97 % of control (dose: 200.0 mg/kg/injection, schedule: Q01DX009 (ip), vehicle: saline); 100 % of control (dose: 400.0 mg/kg/injection, schedule: Q01DX009 (ip), vehicle: saline).
With `CC(=O)Oc1ccc(OC(C)=O)c2cc3ccccc3cc12`, the T/C runs as follows: under setting [1], 87 % of control; (dose: 200.0 mg/kg/injection, schedule: Q01DX001 (ip), vehicle: carboxymethylcellulose (CMC)) 93 % of control; (dose: 400.0 mg/kg/injection, schedule: Q01DX001 (ip), vehicle: carboxymethylcellulose (CMC)) 91 % of control.
As for `C/C(=C\CC1(C)C(=O)CCC2(C)C1CCCC21OCCO1)Sc1ccc(Cl)cc1` (stereo not drawn), the T/C (dose: 100.0 mg/kg/injection, schedule: Q04DX002 (ip), vehicle: Klucel (hydroxypropylcellulose) (HPC)) was 89 % of control; the T/C (dose: 200.0 mg/kg/injection, schedule: Q04DX002 (ip), vehicle: Klucel (hydroxypropylcellulose) (HPC)) was 95 % of control; the T/C (dose: 400.0 mg/kg/injection, schedule: Q04DX002 (ip), vehicle: Klucel (hydroxypropylcellulose) (HPC)) is 110 % of control.
Take `CN1CCCN(C)C1c1ccccc1O`: the T/C (dose: 12.5 mg/kg/injection, schedule: Q04DX003 (ip), vehicle: saline) is 96 % of control; the T/C (dose: 25.0 mg/kg/injection, schedule: Q04DX003 (ip), vehicle: saline) was 106 % of control; the T/C under setting [3] was 101 % of control.
With `C=CCC(CCCCCCCCCCCCC)C(=O)O` (stereo not drawn), the T/C is 96 % of control (dose: 100.0 mg/kg/injection, schedule: Q01DX001 (ip), vehicle: saline with Tween-80); 105 % of control (dose: 200.0 mg/kg/injection, schedule: Q01DX001 (ip), vehicle: saline with Tween-80); 101 % of control (dose: 400.0 mg/kg/injection, schedule: Q01DX001 (ip), vehicle: saline with Tween-80).
With `CCOC(Nc1ccccc1[N+](=O)[O-])C(=O)c1ccccc1` (stereo not drawn), the T/C reads like this: (dose: 100.0 mg/kg/injection, schedule: Q01DX001 (ip), vehicle: saline) 91 % of control; (dose: 200.0 mg/kg/injection, schedule: Q01DX001 (ip), vehicle: saline) 86 % of control; (dose: 400.0 mg/kg/injection, schedule: Q01DX001 (ip), vehicle: saline) 89 % of control.
Turning to `CCOC(=O)C(CCc1c[nH]c(=O)[nH]c1=O)(NC(C)=O)C(=O)OCC`, the T/C was 102 % of control (dose: 50.0 mg/kg/injection, schedule: Q04DX002 (ip), vehicle: saline); 122 % of control under setting [9]; 102 % of control under setting [10]; 104 % of control under setting [11].
With `CCO/C=N/NC(=O)CNC(=O)C=[N+]=[N-]`, the T/C by setting is: (dose: 180.0 mg/kg/injection, schedule: Q01DX001 (ip), vehicle: water) 100 % of control and 116 % of control; (dose: 270.0 mg/kg/injection, schedule: Q01DX001 (ip), vehicle: water) 101 % of control and 117 % of control; (dose: 400.0 mg/kg/injection, schedule: Q01DX001 (ip), vehicle: water) 105 % of control and 117 % of control; (dose: 600.0 mg/kg/injection, schedule: Q01DX001 (ip), vehicle: water) 106 % of control and 111 % of control.
As to `C=C1CCOC1=O`, the T/C reads like this: under setting [9], 104 % of control; under setting [10], 108 % of control; under setting [11], 106 % of control.
